Experimental data taken from ChEMBL document CHEMBL5223111, “Total synthesis and antibacterial evaluation of Empetroxepins A and B and related analogs” (2022).
≈ marks a conversion by molar mass, not a printed value.

Columns and labels:
Type in all cases: functional
[1] = tested on: Staphylococcus aureus; test: Antibacterial activity against Staphylococcus aureus assessed as reduction in pathogen growth
[2] = tested on: Escherichia coli; test: Antibacterial activity against Escherichia coli assessed as reduction in pathogen growth
[3] = tested on: Bacillus subtilis; test: Antibacterial activity against Bacillus subtilis assessed as reduction in pathogen growth

MIC [1] [µg/mL] | MIC [2] [µg/mL] | MIC [3] [µg/mL] | SMILES
16 (≈ 49.5 µM) | > 256 | 8 (≈ 24.8 µM) | Oc1cc2c(c(O)c1O)Oc1ccc(Br)cc1CC2
32 (≈ 115 µM) | > 256 | 32 (≈ 115 µM) | Oc1cc2c(c(O)c1O)Oc1c(Cl)cccc1CC2
64 (≈ 194 µM) | > 256 | 64 (≈ 194 µM) | CCN(CC)c1ccc2c(c1)CCc1cc(O)c(OC)c(O)c1O2
128 (≈ 375 µM) | > 256 | 64 (≈ 187 µM) | COc1c(O)cc2c(c1O)Oc1ccc(N3CCCCC3)cc1CC2
> 256 | > 256 | > 256 | COc1cc2c(c(OC)c1OC)Oc1ccc(N3CCOCC3)cc1CC2
256 (≈ 746 µM) | > 256 | 256 (≈ 746 µM) | COc1c(O)cc2c(c1O)Oc1ccc(N3CCOCC3)cc1CC2
16 (≈ 45.6 µM) | > 256 | 16 (≈ 45.6 µM) | COc1c(O)cc2c(c1OC)Oc1ccc(Br)cc1CC2
> 256 | > 256 | > 256 | COc1cc2c(c(OC)c1OC)Oc1ccc(Br)cc1CC2
> 256 | > 256 | > 256 | COc1cc2c(c(OC)c1OC)Oc1ccccc1CC2
256 (≈ 991 µM) | > 256 | 256 (≈ 991 µM) | COc1c(O)cc2c(c1O)Oc1ccccc1CC2
64 (≈ 176 µM) | > 256 | 64 (≈ 176 µM) | COc1c(O)cc2c(c1O)Oc1ccc(NCc3ccccc3)cc1CC2
> 256 | > 256 | > 256 | COc1cc2c(c(OC)c1OC)Oc1ccc(C)cc1CC2
128 (≈ 444 µM) | > 256 | 128 (≈ 444 µM) | COc1ccc2c(c1)CCc1cc(O)c(OC)c(O)c1O2
> 256 | > 256 | > 256 | COc1cc2c(c(OC)c1OC)Oc1ccc(N3CCCCC3)cc1CC2
> 256 | > 256 | > 256 | CCN(CC)c1ccc2c(c1)CCc1cc(OC)c(OC)c(OC)c1O2
> 256 | > 256 | > 256 | COc1cc2c(c(OC)c1OC)Oc1ccc(NCc3ccccc3)cc1CC2
16 (≈ 47.5 µM) | > 256 | 16 (≈ 47.5 µM) | COc1c(O)cc2c(c1O)Oc1ccc(Br)cc1CC2
32 (≈ 91.6 µM) | > 256 | 32 (≈ 91.6 µM) | COc1c(O)cc2c(c1O)Oc1ccc(Nc3ccccc3)cc1CC2

MIC [1] [µg/mL] | MIC [2] [µg/mL] | MIC [3] [µg/mL] | SMILES
256 (≈ 940 µM) | > 256 | 256 (≈ 940 µM) | COc1c(O)cc2c(c1OC)Oc1ccccc1CC2
> 256 | > 256 | 256 (≈ 940 µM) | COc1cc2c(c(O)c1OC)Oc1ccccc1CC2
64 (≈ 230 µM) | > 256 | 128 (≈ 459 µM) | Oc1cc2c(c(O)c1O)Oc1ccc(Cl)cc1CC2
> 256 | > 256 | > 256 | COc1cc2c(c(OC)c1OC)Oc1ccc(Nc3ccccc3)cc1CC2
64 (≈ 262 µM) | > 256 | 128 (≈ 524 µM) | Oc1cc2c(c(O)c1O)Oc1ccccc1CC2
> 256 | > 256 | > 256 | COc1ccc(-c2ccc3c(c2)CCc2cc(OC)c(OC)c(OC)c2O3)cc1
> 256 | > 256 | > 256 | COc1cc2c(c(OC)c1OC)Oc1ccc(N)cc1CC2
> 256 | > 256 | > 256 | COc1ccc2c(c1)CCc1cc(OC)c(OC)c(OC)c1O2
16 (≈ 61.9 µM) | 256 (≈ 991 µM) | 32 (≈ 124 µM) | Cc1ccc2c(c1)CCc1cc(O)c(O)c(O)c1O2
8 (≈ 28.7 µM) | 256 (≈ 919 µM) | 16 (≈ 57.4 µM) | Oc1cc2c(c(O)c1O)Oc1cccc(Cl)c1CC2
> 256 | > 256 | > 256 | COc1cc2c(c(OC)c1OC)Oc1ccc(-c3ccccc3)cc1CC2
> 256 | > 256 | > 256 | COc1cc2c(c(OC)c1OC)Oc1c(Cl)cccc1CC2
> 256 | > 256 | > 256 | COc1cc2c(c(OC)c1OC)Oc1cccc(Cl)c1CC2
> 256 | > 256 | > 256 | COC(=O)c1ccccc1-c1ccc2c(c1)CCc1cc(OC)c(OC)c(OC)c1O2
> 256 | > 256 | > 256 | COc1cc2c(c(OC)c1OC)Oc1ccc(Cl)cc1CC2
32 (≈ 91.1 µM) | > 256 | 32 (≈ 91.1 µM) | COc1cc2c(c(O)c1OC)Oc1ccc(Br)cc1CC2
256 (≈ 933 µM) | > 256 | 256 (≈ 933 µM) | COc1c(O)cc2c(c1O)Oc1ccc(O)cc1CC2
16 (≈ 47.9 µM) | > 256 | 16 (≈ 47.9 µM) | COc1c(O)cc2c(c1O)Oc1ccc(-c3ccccc3)cc1CC2

SMILES | MIC [1] [µg/mL] | MIC [2] [µg/mL] | MIC [3] [µg/mL]
O=C(N[C@H](CO)[C@H](O)c1ccc([N+](=O)[O-])cc1)C(Cl)Cl [CHLORAMPHENICOL] | 8 (≈ 24.8 µM) | 8 (≈ 24.8 µM) | 4 (≈ 12.4 µM)
